Test results published in PMC10283505, “CVM-1118 (foslinanib), a 2-phenyl-4-quinolone derivative, promotes apoptosis and inhibits vasculogenic mimicry via targeting TRAP1” (Pathology and Oncology Research, 2023).
Several values for one entry are separate records, joined by “and”; a condition that tells them apart may be missing. Equal values may be shown once.

How the values were obtained:
[1] = test system: Notch4 ICD; experiment: qPCR analysis of Notch4 expression; type: cell-based, human; settings: C8161, 10 nM, 8–72 h
Description: For the qPCR analysis of Nodal and Notch expression, total RNA was isolated from cells using the PerfectPure RNA Cell Isolation kit (5Prime) and then reverse-transcribed using 1 μg RNA, RT master mix cocktail and MMLV reverse transcriptase. qPCR was performed on a 7500 Real-Time PCR System (Life Technologies) using manufacturer recommended protocol. TaqMan gene expression human primer/probe sets (Applied Biosystems) utilized were Nodal (Hs00250630_s1) and Notch4 (Hs00270200_m1). Target gene expression was normalized to appropriate house-keeping genes (e.g., RPLP0 or GAPDH). Data was analyzed using Life Technologies Sequence Detection Software.

[2] = molecular target: TGFβ1/1 (HIC5) (Homo sapiens, UniProt O43294); experiment: Surface plasmon resonance (Biacore); type: binding; settings: TGFβ1/1, SPR
[3] = test system: CCRF-CEM; experiment: NCI 60 cytotoxicity screening; type: cell-based; settings: Homo sapiens, Leukemia
[4] = test system: K-562; experiment: NCI 60 cytotoxicity screening; type: cell-based; settings: Homo sapiens, K562; K-562, Leukemia
[5] = molecular target: Integrin beta-2 (CD18) (Homo sapiens, UniProt P05107); experiment: Surface plasmon resonance (Biacore); type: binding; settings: CD18, SPR
[6] = molecular target: T1, TRAP1 (Homo sapiens, UniProt Q12931); experiment: Surface plasmon resonance (Biacore); type: binding; set-up: purchased Abcam ab123775; settings: TRAP1, SPR
T1 sequence (Q12931 60-704): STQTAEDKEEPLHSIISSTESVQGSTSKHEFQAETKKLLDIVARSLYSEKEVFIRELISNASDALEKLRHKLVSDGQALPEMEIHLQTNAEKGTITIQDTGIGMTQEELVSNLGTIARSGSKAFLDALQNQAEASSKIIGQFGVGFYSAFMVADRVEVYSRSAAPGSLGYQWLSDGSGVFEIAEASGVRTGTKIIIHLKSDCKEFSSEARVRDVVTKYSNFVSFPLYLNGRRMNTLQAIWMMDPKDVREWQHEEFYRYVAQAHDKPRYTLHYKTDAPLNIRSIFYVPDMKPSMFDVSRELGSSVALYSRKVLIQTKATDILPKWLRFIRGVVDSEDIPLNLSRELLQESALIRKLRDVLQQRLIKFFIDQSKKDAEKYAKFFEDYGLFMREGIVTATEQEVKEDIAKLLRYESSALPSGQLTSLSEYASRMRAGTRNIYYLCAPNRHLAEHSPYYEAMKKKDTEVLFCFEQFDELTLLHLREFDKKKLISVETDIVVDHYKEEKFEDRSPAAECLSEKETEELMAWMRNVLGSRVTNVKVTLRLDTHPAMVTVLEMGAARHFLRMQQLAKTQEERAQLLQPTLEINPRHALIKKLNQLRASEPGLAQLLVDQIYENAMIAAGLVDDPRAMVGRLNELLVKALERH
Description: To confirm the molecular binding of the targeted protein, Surface Plasmon Resonance (SPR) was performed with a Biacore 3000. TRAP1 recombinant protein (Abcam, ab123775) or human Hsp90 recombinant protein (HSP90AB1, Abcam, ab131923) were immobilized on a CM5 sensor chip surface using the amine coupling method according to the manufacturer’s instruction (Biacore, GE Healthcare). CVM-1125 was dissolved in sodium carbonate buffer (pH 9) and then diluted in HBS-EDTA-P20 buffer to desired concentrations (five serial dilutions from 1 × 10^−5 to 1 × 10^−8 M) and injected at flow 30 μL/min with KINJET 60/180 %pos, analyte position, volume, and dissociation time. Specific binding was calculated using BiaEval 3 software.

[7] = test system: PC-3; experiment: NCI 60 cytotoxicity screening; type: cell-based; settings: Homo sapiens; PC-3, Prostate
[8] = molecular target: T1, TRAP1; experiment: Western blot of TRAP1 protein level; type: cell-based; set-up: purchased Abcam ab123775
Description: The methods for detecting TRAP1 proteins were as follows: 4 × 10^5 SKOV-3 cells and 8 × 10^5 COLO-205 cells were seeded onto 6-well plates. After 18 h, the culture medium was changed to contain 50, 100, 200, and 400 nM CVM-1125, and samples were recovered for analysis at 24 or 48 h. To explore the pathway of CVM-1125 degradation of TRAP1 protein, the experimental design was as follows: 1 × 10^6 COLO-205 cells were seeded onto 6-well plates. After 18 h, the culture medium was changed to contain 200 nM CVM-1125, 25 µM chloroquine (CQ), and 2.5 µM MG132, and samples were recovered for analysis at 24 h. Cells at 80% confluence were collected with trypsin, centrifuged, and harvested by PBS into a sample buffer (1M Tris pH 6.8, 50% Glycerol, 10% SDS, 1% bromophenol blue, and 2-mercaptoethanol). Cell lysates were heated at 95°C for 10 min and loaded onto 10% SDS-PAGE. Proteins separated on the gel were transferred to a 0.45 μM PVDF membrane (Merk Milipore, IPVH00010) at 4°C overnight and was then blocked at room temperature with 5% skim milk for 30 min. The primary antibodies were diluted with 5% skim milk in PBS for β-actin (Sigma, A5441, 1:20,000) and TRAP1 (Santa Cruz, sc-13557, 1:100) and incubated for 2 h at room temperature. […]

[9] = test system: COLO 205; experiment: NCI 60 cytotoxicity screening; type: cell-based; settings: Homo sapiens; COLO 205, Colon
[10] = test system: HCC-2998; experiment: NCI 60 cytotoxicity screening; type: cell-based; settings: Homo sapiens; HCC-2998, Colon

Sequence of TGFβ1/1 (HIC5) (O43294 whole entry): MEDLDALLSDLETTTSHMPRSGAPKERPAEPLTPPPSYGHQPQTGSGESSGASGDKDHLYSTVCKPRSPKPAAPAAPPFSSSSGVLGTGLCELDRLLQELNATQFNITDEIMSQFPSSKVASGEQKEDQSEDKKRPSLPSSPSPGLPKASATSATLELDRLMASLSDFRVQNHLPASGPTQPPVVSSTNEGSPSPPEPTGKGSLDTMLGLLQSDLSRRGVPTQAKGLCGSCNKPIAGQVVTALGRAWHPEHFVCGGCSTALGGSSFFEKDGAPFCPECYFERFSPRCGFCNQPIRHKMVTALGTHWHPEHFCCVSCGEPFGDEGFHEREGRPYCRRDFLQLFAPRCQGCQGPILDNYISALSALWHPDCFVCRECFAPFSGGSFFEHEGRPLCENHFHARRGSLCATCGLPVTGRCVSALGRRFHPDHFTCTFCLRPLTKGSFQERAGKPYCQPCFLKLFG
Sequence of Integrin beta-2 (CD18) (P05107 23-769): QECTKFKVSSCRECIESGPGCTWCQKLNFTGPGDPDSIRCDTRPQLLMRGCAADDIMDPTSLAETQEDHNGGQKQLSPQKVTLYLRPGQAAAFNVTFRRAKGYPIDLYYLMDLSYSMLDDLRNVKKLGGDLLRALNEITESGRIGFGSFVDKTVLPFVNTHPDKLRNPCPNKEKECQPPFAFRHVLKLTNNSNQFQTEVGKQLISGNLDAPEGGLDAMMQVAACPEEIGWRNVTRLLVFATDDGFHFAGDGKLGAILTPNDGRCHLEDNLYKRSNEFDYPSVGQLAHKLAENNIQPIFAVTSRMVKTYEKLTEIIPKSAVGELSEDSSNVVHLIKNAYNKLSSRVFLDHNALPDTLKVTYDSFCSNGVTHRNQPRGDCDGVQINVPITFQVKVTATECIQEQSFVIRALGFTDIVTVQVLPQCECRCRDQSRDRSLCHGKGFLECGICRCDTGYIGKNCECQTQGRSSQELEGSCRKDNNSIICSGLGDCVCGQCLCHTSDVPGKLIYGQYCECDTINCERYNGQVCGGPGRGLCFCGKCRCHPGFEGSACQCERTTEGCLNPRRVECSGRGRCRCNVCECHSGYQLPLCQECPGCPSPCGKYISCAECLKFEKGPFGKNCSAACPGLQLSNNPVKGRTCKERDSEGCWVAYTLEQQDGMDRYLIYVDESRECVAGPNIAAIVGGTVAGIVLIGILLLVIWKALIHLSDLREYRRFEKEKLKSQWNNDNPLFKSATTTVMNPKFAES

| SMILES | expression of Notch4 ICD (mRNA) [1] | Association (ka) [2] | Dissociation (kd) [2] | KD (kd/ka) [2] | GI50 [3] | GI50 [4] | Dissociation (kd) [5] | kon ([5]; read-out: Association (ka)) | Kd ([5]; read-out: KD (kd/ka)) | kon ([6]; read-out: Association (ka)) | Kd ([6]; read-out: KD (kd/ka)) | GI50 [7] | TRAP1 protein levels ([8]; COLO205, 50–400 nM) | TRAP1 protein levels ([8]; SKOV3, 50–400 nM) | GI50 [9] | GI50 [10] |
| --- | --- | --- | --- | --- | --- | --- | --- | --- | --- | --- | --- | --- | --- | --- | --- | --- |
| COc1ccc2[nH]c(-c3cccc(F)c3)cc(=O)c2c1OP(=O)(O)O [CVM-1118] | decreased | – | – | – | – | – | – | – | – | – | – | – | – | – | – | – |
| COc1ccc2[nH]c(-c3cccc(F)c3)cc(=O)c2c1O [CVM-1125] | – | No dose dependent interaction | No dose dependent interaction | No dose dependent interaction | 34.8 nM | 24.1 nM | 1.08e-05 s⁻¹ | 14.4 M⁻¹ s⁻¹ | 748 nM | 30200 M⁻¹ s⁻¹ | 67 nM and 66.8 nM | 32.6 nM | reduced with increasing concentrations | reduced with increasing concentrations | 25.2 nM | 32.1 nM |
